Data as given in doi:10.1101/2024.08.19.608619, “Discovery of potent SARS-CoV-2 nsp3 macrodomain inhibitors uncovers lack of translation to cellular antiviral response” (bioRxiv, 2024).
Like-named read-outs stand apart in the source and are kept apart here.

How the values were obtained:
SARS-CoV-2 nsp3-mac1 [1] = target: T1, SARS-CoV-2 nsp3-mac1 (Severe acute respiratory syndrome coronavirus 2, UniProt P0DTD1); test: biochemical; format: biochemical; conditions: SARS-CoV-2 nsp3 macrodomain TR-FRET single point
SARS-CoV-2 nsp3-mac1 [2] = target: T1, SARS-CoV-2 nsp3-mac1; test: biochemical; parameters: SARS-CoV-2 nsp3 macrodomain TR-FRET single point, per cent inhibition, n=2
[3] = read-out: perc_inhibition_mean, batch_name=ASAP-0000322-001
[4] = read-out: perc_inhibition_mean, batch_name=ASAP-0000353-001
[5] = read-out: perc_inhibition_mean, batch_name=ASAP-0000382-001
[6] = read-out: perc_inhibition_mean, batch_name=ASAP-0000459-001
[7] = read-out: perc_inhibition_mean, batch_name=ASAP-0000418-001
[8] = read-out: perc_inhibition_mean, batch_name=ASAP-0000463-001
[9] = read-out: perc_inhibition_mean, batch_name=ASAP-0000323-001
[10] = read-out: perc_inhibition_mean, batch_name=ASAP-0000326-001
[11] = read-out: perc_inhibition_mean, batch_name=ASAP-0000384-001
[12] = read-out: perc_inhibition_mean, batch_name=ASAP-0000298-001
[13] = read-out: perc_inhibition_mean, batch_name=ASAP-0000342-001
[14] = read-out: perc_inhibition_mean, batch_name=ASAP-0000312-001
[15] = read-out: perc_inhibition_mean, batch_name=ASAP-0000246-001

## CC(C)n1nccc1NC(=O)c1ccc(NC(=O)Nc2ccccc2)cc1 [ASAP-0000322]
SARS-CoV-2 nsp3-mac1 [1]; concentration 49.75 uM, n=2
  perc_inhibition_mean: -1.998%
SARS-CoV-2 nsp3-mac1 [1]; concentration 99.5 uM, n=2
  perc_inhibition_mean: -0.924%
SARS-CoV-2 nsp3-mac1 [2]; [3]
  inhibition at 49.75 µM: -2%
  inhibition at 99.5 µM: -0.924%

## Cc1cc(NCc2csc(C)n2)ncn1 [ASAP-0000106]
SARS-CoV-2 nsp3-mac1 [1]; concentration 50.0 uM
  perc_inhibition_mean: -4.644%
SARS-CoV-2 nsp3-mac1 [2]; read-out: perc_inhibition_mean, batch_name=ASAP-0000106-001
  inhibition at 50 µM: -4.64%

## O=C(NC[C@@H]1CCCCN1)c1cnn2ccc(C3CCN(C(=O)c4ccccc4)CC3)cc12 [ASAP-0000353]
SARS-CoV-2 nsp3-mac1 [1]; concentration 49.75 uM
  perc_inhibition_mean: -5.92%
SARS-CoV-2 nsp3-mac1 [1]; concentration 99.5 uM
  perc_inhibition_mean: -2.573%
SARS-CoV-2 nsp3-mac1 [2]; [4]
  inhibition at 49.75 µM: -5.92%
  inhibition at 99.5 µM: -2.57%

## Cc1nc2cnccn2c1NC(=O)c1cc(-c2ccco2)[nH]n1 [ASAP-0000101]
SARS-CoV-2 nsp3-mac1 [1]; concentration 50.0 uM
  perc_inhibition_mean: -3.884%
SARS-CoV-2 nsp3-mac1 [2]; read-out: perc_inhibition_mean, batch_name=ASAP-0000101-001
  inhibition at 50 µM: -3.88%

## Fc1ccc(OC(F)F)c(CNc2cnc3[nH]ncc3c2)c1 [ASAP-0000015]
SARS-CoV-2 nsp3-mac1 [1]; concentration 50.0 uM
  perc_inhibition_mean: -6.672%
SARS-CoV-2 nsp3-mac1 [2]; read-out: perc_inhibition_mean, batch_name=ASAP-0000015-002
  inhibition at 50 µM: -6.67%

## O=C(c1cncc(O)n1)N1CCC(c2ccn3ncc(C(=O)N4CCCCC4)c3c2)CC1 [ASAP-0000382]
SARS-CoV-2 nsp3-mac1 [1]; concentration 49.75 uM
  perc_inhibition_mean: 26.617%
SARS-CoV-2 nsp3-mac1 [1]; concentration 99.5 uM
  perc_inhibition_mean: 41.906%
SARS-CoV-2 nsp3-mac1 [2]; [5]
  inhibition at 49.75 µM: 26.6%
  inhibition at 99.5 µM: 41.9%

## O=C(C[C@@H](NC(=O)c1ncnc2[nH]ccc12)C1CC1)NCc1ccc(C(=O)O)cc1 [ASAP-0000459]
SARS-CoV-2 nsp3-mac1 [1]; concentration 49.75 uM
  perc_inhibition_mean: -9.862%
SARS-CoV-2 nsp3-mac1 [1]; concentration 99.5 uM
  perc_inhibition_mean: 0.768%
SARS-CoV-2 nsp3-mac1 [2]; [6]
  inhibition at 49.75 µM: -9.86%
  inhibition at 99.5 µM: 0.768%

## CCO[C@@H]1C[C@@H](Nc2ncnc3[nH]ccc23)C12CCOCC2 [ASAP-0000093]
SARS-CoV-2 nsp3-mac1 [1]; concentration 50.0 uM
  perc_inhibition_mean: 2.316%
SARS-CoV-2 nsp3-mac1 [2]; read-out: perc_inhibition_mean, batch_name=ASAP-0000093-001
  inhibition at 50 µM: 2.32%

## Cc1ccc(S(=O)(=O)Nc2ccccc2F)cc1C(=O)Nc1cnc2[nH]ncc2c1 [ASAP-0000018]
SARS-CoV-2 nsp3-mac1 [1]; concentration 50.0 uM
  perc_inhibition_mean: 0.764%
SARS-CoV-2 nsp3-mac1 [2]; read-out: perc_inhibition_mean, batch_name=ASAP-0000018-001
  inhibition at 50 µM: 0.764%

## Cn1ncnc1C(=O)N1CCC(c2ccn3ncc(C(=O)N4CCCCC4)c3c2)CC1 [ASAP-0000418]
SARS-CoV-2 nsp3-mac1 [1]; concentration 49.75 uM
  perc_inhibition_mean: 2.38%
SARS-CoV-2 nsp3-mac1 [1]; concentration 99.5 uM
  perc_inhibition_mean: 20.346%
SARS-CoV-2 nsp3-mac1 [2]; [7]
  inhibition at 49.75 µM: 2.38%
  inhibition at 99.5 µM: 20.3%

## COCc1cc(CNc2cc3c(O)ncnc3cn2)no1 [ASAP-0000202]
SARS-CoV-2 nsp3-mac1 [1]; concentration 50.0 uM
  perc_inhibition_mean: 3.308%
SARS-CoV-2 nsp3-mac1 [2]; read-out: perc_inhibition_mean, batch_name=ASAP-0000202-001
  inhibition at 50 µM: 3.31%

## Cn1cc([C@@H](Nc2ncnc3[nH]ccc23)C2CCC2)cn1 [ASAP-0000463]
SARS-CoV-2 nsp3-mac1 [1]; concentration 49.75 uM
  perc_inhibition_mean: 78.069%
SARS-CoV-2 nsp3-mac1 [1]; concentration 99.5 uM
  perc_inhibition_mean: 91.032%
SARS-CoV-2 nsp3-mac1 [2]; [8]
  inhibition at 49.75 µM: 78.1%
  inhibition at 99.5 µM: 91%

## O=C(CCN(Cc1cccc(Cl)c1)C(=O)[C@@H]1CNCC12CC2)N1CCNCC1 [ASAP-0000323]
SARS-CoV-2 nsp3-mac1 [1]; concentration 49.75 uM, n=2
  perc_inhibition_mean: 4.205%
SARS-CoV-2 nsp3-mac1 [1]; concentration 99.5 uM, n=2
  perc_inhibition_mean: 2.382%
SARS-CoV-2 nsp3-mac1 [2]; [9]
  inhibition at 49.75 µM: 4.21%
  inhibition at 99.5 µM: 2.38%

## O=C(CCN(Cc1cccc(Cl)c1)C(=O)C1(O)CCCC1)N1CCNCC1 [ASAP-0000326]
SARS-CoV-2 nsp3-mac1 [1]; concentration 49.75 uM, n=2
  perc_inhibition_mean: -1.213%
SARS-CoV-2 nsp3-mac1 [1]; concentration 99.5 uM, n=2
  perc_inhibition_mean: -1.781%
SARS-CoV-2 nsp3-mac1 [2]; [10]
  inhibition at 49.75 µM: -1.21%
  inhibition at 99.5 µM: -1.78%

## CC(C)[C@@H](Nc1ncnc2[nH]ccc12)c1nncn1C [ASAP-0000384]
SARS-CoV-2 nsp3-mac1 [1]; concentration 49.75 uM
  perc_inhibition_mean: 4.589%
SARS-CoV-2 nsp3-mac1 [1]; concentration 99.5 uM
  perc_inhibition_mean: 10.829%
SARS-CoV-2 nsp3-mac1 [2]; [11]
  inhibition at 49.75 µM: 4.59%
  inhibition at 99.5 µM: 10.8%

## O=C(CCN(Cc1cccc(Cl)c1)C(=O)C1(F)CCCCC1)N1CCNCC1 [ASAP-0000298]
SARS-CoV-2 nsp3-mac1 [1]; concentration 49.75 uM, n=2
  perc_inhibition_mean: -3.576%
SARS-CoV-2 nsp3-mac1 [1]; concentration 99.5 uM, n=2
  perc_inhibition_mean: 0.185%
SARS-CoV-2 nsp3-mac1 [2]; [12]
  inhibition at 49.75 µM: -3.58%
  inhibition at 99.5 µM: 0.185%

## O=C(Nc1ccccc1)Nc1ccc(C(=O)Nc2cnnc(Cl)c2)cc1 [ASAP-0000342]
SARS-CoV-2 nsp3-mac1 [1]; concentration 49.75 uM, n=2
  perc_inhibition_mean: -1.718%
SARS-CoV-2 nsp3-mac1 [1]; concentration 99.5 uM, n=2
  perc_inhibition_mean: -0.19%
SARS-CoV-2 nsp3-mac1 [2]; [13]
  inhibition at 49.75 µM: -1.72%
  inhibition at 99.5 µM: -0.19%

## C[C@]1(C(=O)N(CCC(=O)N2CCNCC2)Cc2cccc(Cl)c2)CCCN1 [ASAP-0000312]
SARS-CoV-2 nsp3-mac1 [1]; concentration 49.75 uM, n=2
  perc_inhibition_mean: 1.403%
SARS-CoV-2 nsp3-mac1 [1]; concentration 99.5 uM, n=2
  perc_inhibition_mean: 2.129%
SARS-CoV-2 nsp3-mac1 [2]; [14]
  inhibition at 49.75 µM: 1.4%
  inhibition at 99.5 µM: 2.13%

## Cc1cccc2oc(CCNc3ncnc4[nH]ccc34)nc12 [ASAP-0000038]
SARS-CoV-2 nsp3-mac1 [1]; concentration 50.0 uM
  perc_inhibition_mean: -3.259%
SARS-CoV-2 nsp3-mac1 [2]; read-out: perc_inhibition_mean, batch_name=ASAP-0000038-001
  inhibition at 50 µM: -3.26%

## Clc1cnc(OCCNc2ncnc3[nH]ccc23)c(Cl)c1 [ASAP-0000246]
SARS-CoV-2 nsp3-mac1 [1]; concentration 50.0 uM
  perc_inhibition_mean: -4.296%
SARS-CoV-2 nsp3-mac1 [1]; concentration 100.0 uM
  perc_inhibition_mean: -7.687%
SARS-CoV-2 nsp3-mac1 [2]; [15]
  inhibition at 50 µM: -4.3%
  inhibition at 100 µM: -7.69%
